Source: patent publication US20130197090A1, “POSTURAL STABILITY AND INCIDENT FUNCTIONS IN PATIENTS” (Chelsea Therapeutics, Inc., priority 2012, published 2013)

What was measured:
[1] = test system: PD patients; assay: Patient-reported falls, double-blind placebo-controlled study of Example 1; assay type: in vivo, human
Method: A multi-center, double-blind, randomized, parallel-group, placebo-controlled study was carried out to assess the clinical effect of droxidopa over the course of 10 weeks for reducing falls in PD patients. The study included a two week double-blind dose-titration period followed by an eight week double-blind treatment period. A screening period (up to 14 days) was used to determine patient eligibility. Throughout the study, visit specific assessments were conducted three hours (an acceptable range was two to five hours) following the patient's first daily dose of droxidopa. Patients who successfully passed all screening assessments continued to the baseline measurements. At the end of the baseline visit, eligible patients were randomized to treatment with either droxidopa or placebo (randomization was double-blind, 1:1). Patients entered a double-blind titration phase at 100 mg TID of droxidopa or matching placebo. Treatment was escalated in 100 mg TID increments to a maximum of 600 mg TID. Upon completion of the dose titration phase, patients returned for a study visit after 8 weeks of double-blind treatment at their titrated dose. The study included 27 placebo-treated patients and 24 droxidopa-treated patients. During the study, the placebo-treated patients reported a total of 197 falls compared with 79 falls reported by the droxidopa-treated patients. […] Standardizing the above data to the number of falls per patient per week, patients randomized to the placebo treatment experienced an average of 0.93 falls per patient per week. Patients randomized to the droxidopa treatment experienced an average of 0.39 falls per patient per week. This represents an approximate 60% reduction in the number of falls reported by droxidopa-treated patients compared with placebo-treated patients. […] In the study, it was evident that a number of patients in each group was not normally distributed—i.e., a few patients in each group experienced many more falls than the remaining patients in each respective group. A sensitivity analysis was performed to assess the robustness of the treatment effect in light of this disparity in falls within each group. The beneficial treatment effect favoring droxidopa was evident even when the top two patients or the top five patients who experienced the highest number of falls in each treatment group were removed from the analysis. See FIG. 4 and FIG. 5, respectively. When the top two patients in each treatment group were excluded, patients randomized to the placebo group experienced an average of 0.54 falls per patient per week compared with 0.16 falls per patient per week in patients randomized to the droxidopa group. Similarly, when the top five patients in each treatment group were excluded, patients randomized to the placebo group experienced an average of 0.20 falls per patient per week compared with 0.10 falls per patient per week in patients randomized to the droxidopa group.

[2] = test system: PD patients; assay: Hoehn and Yahr rating scale score, study of Example 1; assay type: in vivo, human; conditions: for Hoehn and Yahr, Baseline: before treatment
Method: (§1) A multi-center, double-blind, randomized, parallel-group, placebo-controlled study was carried out to assess the clinical effect of droxidopa over the course of 10 weeks for reducing falls in PD patients. The study included a two week double-blind dose-titration period followed by an eight week double-blind treatment period. A screening period (up to 14 days) was used to determine patient eligibility. Throughout the study, visit specific assessments were conducted three hours (an acceptable range was two to five hours) following the patient's first daily dose of droxidopa. Patients who successfully passed all screening assessments continued to the baseline measurements. At the end of the baseline visit, eligible patients were randomized to treatment with either droxidopa or placebo (randomization was double-blind, 1:1). Patients entered a double-blind titration phase at 100 mg TID of droxidopa or matching placebo. Treatment was escalated in 100 mg TID increments to a maximum of 600 mg TID. Upon completion of the dose titration phase, patients returned for a study visit after 8 weeks of double-blind treatment at their titrated dose. The study included 27 placebo-treated patients and 24 droxidopa-treated patients.
(§2) Patients in the study were evaluated using the Hoehn and Yahr rating scale and the Movement Disorder Society-sponsored revised version of the UPDRS to evaluate the effect of treatment as evidenced by these two scales. A baseline score for each patient using each test was established prior to treatment with droxidopa or the placebo, and a post-treatment score for each test was established at the end of the study.
Since the Hoehn and Yahr rating scale is heavily weighted towards postural instability as the primary index of disease severity, it is believed that the Hoehn and Yahr score serves as a useful measure of the effect of treatment on NOH in a PD patient population. At the end of this study, droxidopa-treated patients experienced, on average, an improvement from baseline (i.e., a reduction in the score) in their Hoehn and Yahr rating scale score (change: −0.4 points) while placebo-treated patients experienced no change from baseline in their Hoehn and Yahr rating scale score, resulting in a notable treatment difference of −0.4 units favoring droxidopa. Based on an analysis of Hoehn and Yahr rating scale scores in individual patients, a higher proportion of droxidopa-treated patients experienced an improvement in their Hoehn and Yahr rating scale score at the end of the study (10 of 24 patients; 42%) compared with placebo-treated patients (5 of 27 patients; 19%). Conversely, a lower proportion of droxidopa-treated patients experienced a worsening in their Hoehn and Yahr rating scale score at the end of the study (3 of 24 patients; 13%) compared with placebo-treated patients (10 of 27 patients; 37%).

[3] = test system: PD patients; assay: Patient falls, double-blind placebo-controlled study of Example 2; assay type: in vivo, human
Method: A multi-center, double-blind, randomized, placebo-controlled study was carried out to assess the clinical effect of droxidopa for reducing falls in PD patients. The study included a two week double-blind dose-titration period followed by an eight week double-blind treatment period. A screening period (up to 14 days) was used to determine patient eligibility. The patients were then randomized into a treatment group and a placebo group. Patients entered a double-blind titration phase at 100 mg TID of droxidopa or matching placebo. Treatment was escalated in 100 mg TID increments to a maximum of 600 mg TID. Upon completion of the dose titration phase, patients returned for study visits after 1, 2, 4, and 8 weeks of double-blind treatment at their titrated dose. The study included 78 placebo-treated patients and 69 droxidopa-treated patients. […] This is illustrated in FIG. 9.

[4] = test system: PD patients; assay: MDS-UPDRS score, study of Example 1; assay type: in vivo, human; conditions: for MDS-UPDRS, Baseline: before treatment
Method: as §1, §2
The UPDRS likewise is a useful test for evaluating improvements in symptoms that can be a cause of falls in PD patients since this scale is used to assess the severity of motor and non-motor symptoms in PD patients. In the present study, droxidopa-treated patients experienced a 15.8 point improvement (i.e., decrease) from baseline compared with an 11.4 point improvement in placebo-treated patients. […] The 4.4 point treatment difference favoring droxidopa in the total UPDRS score reflects pronounced improvement in the motor features of PD and mirrors the improvements observed on the Hoehn and Yahr rating scale score.

[5] = test system: PD patients suffering from "freezing of gait"; conditions: Narabayashi et al. 1981; cited from earlier work
[6] = molecular target: T1, MAO-A (Homo sapiens, UniProt P21397); conditions: cited from earlier work
T1 sequence (P21397 1-527): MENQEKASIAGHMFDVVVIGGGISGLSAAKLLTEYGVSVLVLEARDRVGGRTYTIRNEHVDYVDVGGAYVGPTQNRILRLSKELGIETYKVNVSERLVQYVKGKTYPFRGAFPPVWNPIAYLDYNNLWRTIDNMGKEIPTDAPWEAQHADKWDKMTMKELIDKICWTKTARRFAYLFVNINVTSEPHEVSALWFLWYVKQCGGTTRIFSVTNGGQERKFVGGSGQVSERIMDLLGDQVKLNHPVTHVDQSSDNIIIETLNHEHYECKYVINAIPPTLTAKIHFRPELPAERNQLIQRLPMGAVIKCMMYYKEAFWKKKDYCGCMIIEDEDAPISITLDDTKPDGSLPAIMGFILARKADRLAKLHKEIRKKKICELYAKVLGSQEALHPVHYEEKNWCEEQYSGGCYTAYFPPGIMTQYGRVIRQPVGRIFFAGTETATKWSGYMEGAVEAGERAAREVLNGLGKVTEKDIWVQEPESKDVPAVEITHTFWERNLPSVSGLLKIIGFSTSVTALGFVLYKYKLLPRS

[7] = patients with recurrent falls, versus placebo

With `NC(C(=O)O)C(O)c1ccc(O)c(O)c1` (stereo not drawn) [droxidopa, threo-3-(3,4-dihydroxyphenyl) serine] the “reduction in the number of falls compared with placebo-treated patients” value [1] was ~60%, the “total number of falls reported during the study” value ([1]; 10 weeks, 24 droxidopa-treated patients, titrated 100-600 mg TID, placebo 197) was 79 falls and the “treatment effect on total number of patient falls” value ([1]; data from the first 10 days of the study removed) was “beneficial treatment effect favoring droxidopa on the total number of patient falls remained evident”. The “average falls per patient per week” value ([1]; full analysis set, placebo 0.93) was 0.39 falls per patient per week, the “patients who experienced recurrent falls” value ([1]; of 24 droxidopa-treated patients, placebo 12 of 27) was “nine” and the “average falls per patient per week” value ([1]; top five patients with highest number of falls in each group excluded, placebo 0.20) was 0.10 falls per patient per week. The “average falls per patient per week” value ([1]; top two patients with highest number of falls in each group excluded, placebo 0.54) was 0.16 falls per patient per week, the “cumulative number of patient-recorded falls over time” value ([1]; versus placebo) was “relative increase in the number of falls in the placebo treatment group over time was consistently larger compared with the relative increase over time in the droxidopa treatment group” and the “Hoehn and Yahr, End of Study” value ([2]; Non-recurrent Fallers (n = 15)) was 1.4. The “Hoehn and Yahr, Baseline” value ([2]; Non-recurrent Fallers (n = 15)) was 1.8, the “Hoehn and Yahr, End of Study” value ([2]; Recurrent Fallers (n = 9)) was 1.7 and the “Hoehn and Yahr, Baseline” value ([2]; Recurrent Fallers (n = 9)) was 1.9. The “Change in Hoehn and Yahr Rating Scale Score: Improved, %” value ([2]; end of study, N = 24) was 42%, the “Change in Hoehn and Yahr Rating Scale Score: No Change, %” value ([2]; end of study, N = 24) was 46% and the “Change in Hoehn and Yahr Rating Scale Score: Worsened, %” value ([2]; end of study, N = 24) was 13%. For the same compound, the “change from baseline in Hoehn and Yahr rating scale score” value ([2]; end of study, all droxidopa-treated patients, average, placebo no change) was −0.4 points, the “treatment difference in Hoehn and Yahr rating scale score favoring droxidopa” value ([2]; end of study, versus placebo) was −0.4 units and the “improvement in Hoehn and Yahr score” value [2, 7] was “marked improvement”. For the same compound, the “rate of falls per patient per week” value ([3]; 69 droxidopa-treated, 78 placebo-treated patients, titrated 100-600 mg TID) was “visibly less than in the placebo treatment group”, the “treatment effect on falls, sensitivity analysis” value ([3]; top two, top five and top ten patients with highest number of falls in each group removed) was “beneficial treatment effect favoring droxidopa was again evident” and the “MDS-UPDRS, End of Study” value ([4]; Non-recurrent Fallers (n = 15)) was 58.1. For the same compound, the “MDS-UPDRS, Baseline” value ([4]; Non-recurrent Fallers (n = 15)) was 74.3, the “MDS-UPDRS, End of Study” value ([4]; Recurrent Fallers (n = 9)) was 77.7 and the “MDS-UPDRS, Baseline” value ([4]; Recurrent Fallers (n = 9)) was 89.1. For the same compound, the “improvement (decrease) from baseline in UPDRS score” value ([4]; end of study, all droxidopa-treated patients, placebo 11.4) was 15.8 point, the “improvement in UPDRS score” value [4, 7] was “marked improvement” and the “each of the four components of the UPDRS score” value ([4]; versus placebo) was “showed benefits for droxidopa compared with placebo”. For the same compound, the “treatment difference favoring droxidopa in the total UPDRS score” value ([4]; versus placebo) was 4.4 point and the “effect on freezing of gait” value [5] was “a beneficial effect was reported”.

In the case of `O=C(NCCN1CCOCC1)c1ccc(Cl)cc1` [moclobemide], the “selectivity for MAO-A over MAO-B” value [6] is given as “approximately three times more selective for MAO-A than MAO-B”.
